Source: patent publication US5026694A, “Platinum complexes with one radiosensitizing ligand” (priority 1989, dated 1991)
Like-named read-outs stand apart in the source and are kept apart here.

Legend:
[1] = test system: Chinese hamster ovary (CHO) cells; experiment: Toxicity in hypoxic and aerated CHO cells (plating efficiency/survival); type: cell-based; design: plating efficiency / effect on plating efficiency: dose or concentration left out as unconfirmed; settings: for order of toxicity of free ligand: free ligands; for toxicity compared with the compounds of the invention: 100 mM/dm^3 experiments; for approximate order of hypoxic toxicity of platinum complexes: hypoxia
Experimental: The toxicity of the invention compounds with respect to Chinese hamster ovary (CHO) cells was compared in air and in nitrogen induced hypoxia as described by Moore, B. A., et al, Radiation Research (1976) 67:459-478. The radiosensitizing ligands, or cis or transdichlorodiamine platinum II (DDP) or the . bisubstituted platinum complexes, PtCl2 (L)2, were used as controls.
The cells were carried in MEM a medium with 10% fetal calf serum, and plating efficiencies were determined on the seventh day after plating.
In similar experiments at 100 mM/dm^3, MISO and trans-[PtCl2 (miso)2 ] show no toxicity. Survival rates for trans-DDP and monoammine were 0.2 and 0.1 respectively.
Using 100 mM levels, mono-6NQ caused plating efficiency to drop to 0 after an hour, while 6NQ had no effect after 3 hours.

CHO cells = experiment: Radiosensitization of CHO cells (enhancement ratio); type: cell-based, Chinese hamster; settings: for ER: Table 1; for radiosensitization, relative effectiveness: cis configuration, various concentrations, FIG. 2
Experimental: Radiosensitization of CHO cells was determined as described by Moore, B. A., et al, sucra, at 4° C., except that the cells were incubated with complex for 1 hr at 37° C. to allow binding to DNA prior to radiation. A Picker X-ray source (250 kVp, 1.7 mm Cu) was used. As with the toxicity studies, cells were carried, irradiated, and plated in MEM a medium with 10% fetal calf serum, and plating efficiencies were determined on the seventh day after plating. Enhancement ratios (ER) were calculated from the doses required to reduce survival to 1%.

cells = settings: cited from earlier work
tumors = settings: cited from earlier work
[2] = test system: L1210 cells, cDDP sensitive line; experiment: Toxicity in cisDDP-sensitive L1210 cells; type: cell-based; settings: read-out: ID50 (the source's name)
Text: (§1) Patients become resistant to cisplatin (cisDDP) and to many related drugs.

[3] = test system: L1210 cells, cDDP resistant line; experiment: Toxicity in cisDDP-resistant L1210 cells (cross-resistance); type: cell-based; settings: for Ratio (ID50 cDDP resistant/cDDP sensitive): L1210 cells; for IC50: L1210, cDDP resistant line, read-out: ID50 (the source's name)
Text: as §1

cancer = settings: cited from earlier work
DNA of CHO cells = experiment: Platinum bound to DNA extracted from whole CHO cells, atomic absorption; type: cell-based, Chinese hamster; design: dose or concentration left out as unconfirmed; settings: 1-2 hr exposure
Text: Though the results of this assay were erratic they establish that the Pt complexes cross cell membranes and bind to DNA in mammalian cells.

plasmid pSV2-gpt DNA = experiment: Binding to DNA by inhibition of restriction enzyme (BamHI) cleavage of plasmid DNA; type: biochemical; design: inhibition of BamHI cleavage / inhibition of cleavage with BamHI: unit of the concentration uncertain; settings: for binding to DNA as indicated by enzyme inhibition: 1 hr at 37° C.; for binding to DNA, relative: all concentrations, FIG. 8; for inhibition of cleavage with BamHI: FIG. 3
Experimental: The ability of the invention compounds to bind DNA was tested using an assay which is based on inhibition of the ability of restriction enzymes to cleave the complexed DNA. The substrate in the assay was the plasmid pSV2-gpt (Mulligan, R., et al Science (1980) 209:1422-1427). After growth in E. coli. this 5.2 kb plasmid was extracted and linearized using PvuII. Cleavage of the extracted linearized segment by BamHI or EcoRI results in two fragments per enzyme. Inhibition of this cleavage by test compounds provides an assay method for binding of the test compounds.
In the assay, DNA (20 mg/ml) in 100 mM Tris-HCl, 1 mM EDTA, pH 8, was treated with the test compounds at approximately 100 mM for 1 hr at 37° C. Unbound drug was then removed using a G-50 Sephadex spin column (Pharmacia).
To 30 mM of the treated DNA, 23.5 ml of a buffer solution containing 0.33 M Tris-acetate, pH 7.9, 0.66 M potassium acetate, 0.10 M dithiothreitol, and 1 mg/ml BSA, along with 10 units of enzyme, were added. Enzyme activity was stopped using 1 ml 0.5 M EDTA after 30 min at 37° C. Tracking 0.25% bromophenol blue, 0.25% xylene cyanol in 30% glycerol water) was added, and 10 ml of the resulting solution loaded onto a 1% agarose gel made with E buffer (0.04 M Tris, 5 mM sodium acetate; 1 mM EDTA, pH 7.8) and subjected to horizontal electrophoresis. The slab gel was stained with aqueous ethidium bromide solution (1 ng/ml) and photographed under UV light.
Inhibition of the restriction enzyme cleavage was assessed qualitatively by noting the relative proportion of bands, or quantitatively by analyzing densitometric scans of the negatives of the recorded pictures.

KHT sarcoma = experiment: Potentiation of cytotoxicity in vivo by hydralazine, KHT sarcoma model
[4] = 100 mM/dm^3, cis configuration or ligand alone, dose to reduce survival to 1%
[5] = FIG. 7, cis-mono-4NI and cis-mono-5NI

O=[N+]([O-])c1c[nH]cn1 [4-nitroimidazole]
order of toxicity of free ligand [1]: 4-nitroimidazole f MISO f ANT f METRO
enhancement ratio (ER) (CHO cells; [4]): 1.10

O=[N+]([O-])c1ccc2ncccc2c1 [6NQ, 6-nitroquinoline]
effect on plating efficiency ([1]; after 3 hours): no effect

Nc1ncc([N+](=O)[O-])s1 [ANT, 2-amino-5-nitrothiazole]
order of toxicity of free ligand [1]: 4-nitroimidazole f MISO f ANT f METRO
enhancement ratio (ER) (CHO cells; [4]): 1.25

Cc1ncc([N+](=O)[O-])n1CCO [METRO, 1,2-hydroxyethyl-2-methyl-5-nitroimidazole]
order of toxicity of free ligand [1]: 4-nitroimidazole f MISO f ANT f METRO
sensitizing cells to radiation treatment in clinical trials (cells): beneficial effects in sensitizing cells to radiation treatment

COCC(O)Cn1ccnc1[N+](=O)[O-] (centres unmarked) [MISO]
toxicity ([1]; 100 mM/dm^3): no toxicity
order of toxicity of free ligand [1]: 4-nitroimidazole f MISO f ANT f METRO
ER (CHO cells; 100 mmol/dm^3): 1.3
ER (CHO cells; 250 mmol/dm^3): 1.4
sensitization in oxygen (CHO cells): no sensitization
sensitizing cells to radiation treatment in clinical trials (cells): beneficial effects in sensitizing cells to radiation treatment

O=[N+]([O-])c1nccn1CC(O)CN1CC1 (centres unmarked) [RSU-1069]
side effects (tumors; chemotherapy): high incidence of side effects
amount of RSU-1069 required for effectiveness with 5-hydroxytryptamine or hydralazine (tumors; coadministration of 5-hydroxytryptamine or hydralazine): can be reduced by administration of 5-hydroxytryptamine or hydralazine
enhancement of effect of RSU-1069 by hydralazine (tumors; hydralazine 5 mg/kg or 30 mg/kg, RSU-1069 0.1 mg/g IP, within three hours): enhance the effect of RSU-1069

O=C(Cn1ccnc1[N+](=O)[O-])NCCO [SR-2508]
sensitizing cells to radiation treatment in clinical trials (cells): beneficial effects in sensitizing cells to radiation treatment

Cc1n(CCO)c([N+](=O)[O-])c[n+]1[Pt-2]([NH3+])([Cl])[Cl] [cis mono METRO]
IC50 [2]: 4.4 mM
Ratio (ID50 cDDP resistant/cDDP sensitive) [3]: 5

N.N.[Cl][Pt][Cl] [cis-DDP, cis[PtCl2 (NH3)2]]
antineoplastic activity (cancer; literature, 1969): shown to have antineoplastic activity
usefulness in treatment of cancer (cancer; testicular cancer versus other sites): useful in the treatment of testicular cancer, but less so in treatment of cancers at other sites
platinum bound to the extracted DNA (DNA of CHO cells): 6 ng Pt/10^6 cells
toxicity compared with the compounds of the invention [1]: somewhat more toxic than the compounds of the invention
approximate order of hypoxic toxicity of platinum complexes [1]: cis-DDP ff trans-mono-MISO f monoammine Z cis-mono-MISO f trans-DDP f mono-METRO Z mono-NI f mono-ANT
ER (CHO cells; 10 mmol/dm^3): 1.3
IC50 [2]: 0.1 mM
inhibition of BamHI cleavage (plasmid pSV2-gpt DNA; 40 (unit uncertain)): 30%
binding to DNA as indicated by enzyme inhibition (plasmid pSV2-gpt DNA): binds much more strongly than the monoammine
IC50 [3]: 5 mM
Ratio (ID50 cDDP resistant/cDDP sensitive) [3]: 50
effectiveness in sensitive versus resistant cells ([3]; more effective in "sensitive" cells): 50 ×

COCC(O)Cn1cc[n+]([Pt-2]([NH3+])([Cl])[Cl])c1[N+](=O)[O-] (stereo not drawn) [cis-mono-MISO, PtCl2 (NH3) (misonidazole)]
toxicity in hypoxia versus in air ([1]; 100 mM/dm^3, aerobic and hypoxic cells, FIG. 1): toxicity is greater in hypoxia than in air
toxicity compared with MISO alone and cisDDP ([1]; complex 100 mM/dm^3, cis-DDP at 10 mM/dm^3): more toxic than MISO alone, although less toxic than cisDDP
ER (CHO cells; 100 mmol/dm^3): 1.25
sensitization in oxygen (CHO cells): no sensitization
IC50 ([2]; listed as cis mono MISO): 8.5 mM

N.O=[N+]([O-])c1c[nH]cn1.[Cl][Pt][Cl] [mono-4NI, PtCl2 (ammine)(4-nitroimidazole)]
approximate order of hypoxic toxicity of platinum complexes [1]: cis-DDP ff trans-mono-MISO f monoammine Z cis-mono-MISO f trans-DDP f mono-METRO Z mono-NI f mono-ANT
enhancement ratio (ER) (CHO cells; [4]): 1.16
enhancement ratio (ER) (CHO cells; [5]): 1.16
radiosensitization, relative effectiveness (CHO cells): somewhat more effective than mono-ANT
binding to DNA, relative (plasmid pSV2-gpt DNA): neither bound as well, however, as cis-DDP

N.O=[N+]([O-])c1cnc[nH]1.[Cl][Pt][Cl] [mono-5NI, PtCl2 (ammine)(5-nitroimidazole)]
enhancement ratio (ER) (CHO cells; [5]): 1.28
binding to DNA, relative (plasmid pSV2-gpt DNA): more effective binding to DNA at all concentrations than cis-mono-4NI; neither bound as well, however, as cis-DDP

N.O=[N+]([O-])c1ccc2ncccc2c1.[Cl][Pt][Cl] [mono-6NQ, [PtCl2 (NH3)(6-nitroquinoline)]
toxicity compared with 6NQ alone ([1]; FIG. 5): much higher toxicity than 6NQ alone
plating efficiency ([1]; after an hour, 60 min): 0

N.Nc1ncc([N+](=O)[O-])s1.[Cl][Pt][Cl] [mono-ANT, PtCl2 (ammine)(2-amino-5-nitrothiazole)]
approximate order of hypoxic toxicity of platinum complexes [1]: cis-DDP ff trans-mono-MISO f monoammine Z cis-mono-MISO f trans-DDP f mono-METRO Z mono-NI f mono-ANT
enhancement ratio (ER) (CHO cells; [4]): 1.15
inhibition of cleavage with BamHI (plasmid pSV2-gpt DNA; 320 (unit uncertain)): At least 10%

Cc1ncc([N+](=O)[O-])n1CCO.N.[Cl][Pt][Cl] [mono-METRO]
approximate order of hypoxic toxicity of platinum complexes [1]: cis-DDP ff trans-mono-MISO f monoammine Z cis-mono-MISO f trans-DDP f mono-METRO Z mono-NI f mono-ANT
radiosensitization, relative effectiveness (CHO cells): approximately equal to mono-ANT
inhibition of cleavage with BamHI (plasmid pSV2-gpt DNA; approximately 50 mM): At least 10%

COCC(O)Cn1cc[n+]([Pt-2]([NH3+])([Cl])[Cl])c1[N+](=O)[O-] (centres unmarked) [mono-MISO, PtCl2 (NH3) (misonidazole)]
potentiation by hydralazine (KHT sarcoma; hydralazine 5 mg/kg, FIG. 4): potentiating effects of hydralazine on this compound
dose reduction to achieve equitoxic doses when hydralazine is coadministered (KHT sarcoma; with hydralazine): 4 ×
drop in cell survival with combined therapy (KHT sarcoma; with hydralazine, mono-MISO 10 to 300 mg/kg, FIG. 4): approx. 3 logs
radiosensitization, relative effectiveness (CHO cells): somewhat more effective than mono-NI
inhibition of cleavage with BamHI (plasmid pSV2-gpt DNA; approximately 50 mM): At least 10%

N.[Cl][Pt-]([Cl])[Cl].[K+] [monoammine, K[PtCl3 (NH3)]]
Survival rate ([1]; 100 mM/dm^3): 0.1
toxicity compared with the compounds of the invention [1]: somewhat more toxic than the compounds of the invention
approximate order of hypoxic toxicity of platinum complexes [1]: cis-DDP ff trans-mono-MISO f monoammine Z cis-mono-MISO f trans-DDP f mono-METRO Z mono-NI f mono-ANT
ER (CHO cells; 100 mmol/dm^3): 1.2
inhibition of BamHI cleavage (plasmid pSV2-gpt DNA; 160 mM (level not reached until this concentration)): 30%
binding to DNA as indicated by enzyme inhibition (plasmid pSV2-gpt DNA): showed binding to the DNA as indicated by enzyme inhibition

N.N.[Cl][Pt+2][Cl] [trans-DDP, transdichlorodiamine platinum II]
platinum bound to the extracted DNA (DNA of CHO cells): 5 ng Pt/10^6 cells
Survival rate ([1]; 100 mM/dm^3): 0.2
toxicity compared with the compounds of the invention [1]: somewhat less toxic
approximate order of hypoxic toxicity of platinum complexes [1]: cis-DDP ff trans-mono-MISO f monoammine Z cis-mono-MISO f trans-DDP f mono-METRO Z mono-NI f mono-ANT
ER (CHO cells; 100 mmol/dm^3): 1.3
IC50 [2]: 22 mM
IC50 [3]: 66 mM
Ratio (ID50 cDDP resistant/cDDP sensitive) [3]: 3

COCC(O)Cn1cc[n+]([Pt-2]([Cl])([Cl])[n+]2ccn(CC(O)COC)c2[N+](=O)[O-])c1[N+](=O)[O-] (stereo not drawn) [trans-bis-MISO, trans-[PtCl2 (miso)2]]
toxicity ([1]; 100 mM/dm^3): no toxicity
toxicity compared with the compounds of the invention [1]: somewhat less toxic
ER (CHO cells; 100 mmol/dm^3): 1.2
sensitization in oxygen (CHO cells): no sensitization
